Laboratory results reported in patent publication US12653800B2, “Small molecule inhibitors of TLR2 signaling” (University of Maryland, Baltimore, priority 2015, dated 2026).

Assays:
[1] = target: TLR2/6 (Homo sapiens, UniProt O60603); experiment: P2C-induced IL-8 mRNA (qRT-PCR) in HEK-TLR2 stable transfectants; type: cell-based; set-up: expressed in transfected cells; details: 100 μM compound, 1 hr pretreatment, P2C 5 ng/mL 1 hr, HEK-TLR2 cells; read-out: decrease of P2C-induced IL-8 mRNA
[2] = target: TLR2/1 (Mus musculus, UniProt Q9QUN7); experiment: Cytokine mRNA/protein in murine peritoneal macrophages stimulated with TLR2/1 agonists (P3C, LTA SA); type: cell-based; details: murine macrophages, 25 μM or 50 μM, P3C 50 ng/mL 1 hr
Chain of TLR2/1 (Q9QUN7 25-784): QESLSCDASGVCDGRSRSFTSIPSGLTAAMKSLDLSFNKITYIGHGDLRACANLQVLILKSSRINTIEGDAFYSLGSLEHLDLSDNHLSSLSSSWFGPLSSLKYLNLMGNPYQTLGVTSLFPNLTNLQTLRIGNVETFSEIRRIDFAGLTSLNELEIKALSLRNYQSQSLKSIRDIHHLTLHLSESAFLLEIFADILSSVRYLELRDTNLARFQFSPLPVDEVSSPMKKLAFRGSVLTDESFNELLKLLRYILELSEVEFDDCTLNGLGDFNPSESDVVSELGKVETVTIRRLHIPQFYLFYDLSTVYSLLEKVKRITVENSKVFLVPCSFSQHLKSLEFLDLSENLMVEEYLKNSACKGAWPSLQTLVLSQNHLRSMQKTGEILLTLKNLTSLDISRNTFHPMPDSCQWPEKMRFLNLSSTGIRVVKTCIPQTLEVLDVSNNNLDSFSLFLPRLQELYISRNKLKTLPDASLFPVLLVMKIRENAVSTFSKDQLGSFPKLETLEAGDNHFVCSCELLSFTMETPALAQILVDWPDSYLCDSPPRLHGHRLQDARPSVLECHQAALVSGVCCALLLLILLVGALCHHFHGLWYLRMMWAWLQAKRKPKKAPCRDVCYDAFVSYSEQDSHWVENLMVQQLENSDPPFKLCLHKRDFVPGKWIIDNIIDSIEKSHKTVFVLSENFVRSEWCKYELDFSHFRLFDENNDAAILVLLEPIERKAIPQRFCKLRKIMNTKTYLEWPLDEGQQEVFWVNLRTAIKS

[3] = in vivo; stated for o-vanillin, reported previously for its isomer vanillin (Beaudry 2010); cited from earlier work

Chain of TLR2/6 (O60603 21-784): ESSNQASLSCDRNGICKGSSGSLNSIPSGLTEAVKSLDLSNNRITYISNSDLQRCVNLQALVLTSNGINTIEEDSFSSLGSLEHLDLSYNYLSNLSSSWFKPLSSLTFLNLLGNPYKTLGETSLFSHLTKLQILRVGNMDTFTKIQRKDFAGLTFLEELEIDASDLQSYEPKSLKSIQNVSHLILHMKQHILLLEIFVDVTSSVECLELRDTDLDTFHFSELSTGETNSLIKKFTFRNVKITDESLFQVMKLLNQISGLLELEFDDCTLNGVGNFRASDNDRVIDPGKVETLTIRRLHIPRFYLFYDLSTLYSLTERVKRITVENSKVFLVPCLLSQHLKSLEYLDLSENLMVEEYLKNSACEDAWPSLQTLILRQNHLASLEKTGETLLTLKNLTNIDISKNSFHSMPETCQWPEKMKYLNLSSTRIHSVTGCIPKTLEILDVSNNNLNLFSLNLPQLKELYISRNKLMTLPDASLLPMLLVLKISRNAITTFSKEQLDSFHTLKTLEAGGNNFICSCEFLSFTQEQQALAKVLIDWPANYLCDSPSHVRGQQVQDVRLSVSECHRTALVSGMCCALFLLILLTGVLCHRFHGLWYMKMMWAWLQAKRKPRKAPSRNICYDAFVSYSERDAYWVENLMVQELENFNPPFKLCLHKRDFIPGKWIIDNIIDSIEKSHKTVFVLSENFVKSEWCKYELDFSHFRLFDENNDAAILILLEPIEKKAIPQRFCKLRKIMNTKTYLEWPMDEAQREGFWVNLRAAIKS

SMILES | inhibition at 100 µM [1] | other results
Cc1ccc(S(=O)(=O)NCCC(=O)NCCc2ccccc2)cc1 [Compound C33] | ≥ 50% | 
Cc1c(N)cccc1C(=O)O [Compound C29R, 3-amino-2-methylbenzoic acid, reference compound] |  | TLR2/1-induced TNF-α gene expression [2]: but not C29R, dose-dependently inhibited
COc1cc(C=O)ccc1O [vanillin, reference compound] |  | bioavailability [3]: poor bioavailability
O=C(CCC1N=C2c3ccccc3NC(=S)N2C1=O)NCc1ccco1 (centres unmarked) [Compound C30] | ≥ 50% | 
CN(CC(=O)Nc1ccc2c(c1)OCO2)S(=O)(=O)c1cccs1 [Compound C24] | ≥ 50% | 
COc1cccc(-c2nc(CSCC(=O)NCCN3CCOCC3)c(C)o2)c1 [Compound C25] | ≥ 50% | 
CCN(CCCNc1nc(=S)[nH]c2ccccc12)c1ccccc1 [Compound C32] | ≥ 50% | 
COc1ccc(-c2nc(CSCC(=O)NCc3cccnc3)c(C)o2)cc1OC [Compound C26] | ≥ 50% | 
